{"source": "patent US20210392890A1", "about": "“COMPOSITIONS COMPRISING PYRIDINE CARBOXYLATE HERBICIDES AND PLANT GROWTH REGULATORS” (Corteva Agriscience LLC, priority 2018, published 2021)", "assay_type_in_all_cases": "in vivo", "key": {"[1]": {"system": "Papaver rhoeas (herbicide-resistant poppy)", "experiment": "Greenhouse postemergence herbicidal effect on PAPRH-RES", "excerpt": "(§1) Seeds of the desired test plant species were planted in a 90:10% v/v (volume/volume) mixture of PRO-MIX® BX (Premier Tech Horticulture, Quakertown, Pa., USA) and PROFILE® GREENS GRADE™ (Profile Products LLC, Buffalo Grove, Ill., USA) planting mixture, which typically has a pH of 5.2 to 6.2 and an organic matter content of at least 50 percent, in plastic pots with a surface area of 103.2 square centimeters (cm^2). In some aspects, to help ensure good germination and healthy plants, a fungicide treatment and/or other chemical or physical treatment was applied. The plants were grown for 7-36 days (d) in a greenhouse with an approximate 14-hour (h) photoperiod which was maintained at about 23° C. during the day and 22° C. during the night. Nutrients and water were added on a regular basis and supplemental lighting was provided with overhead metal halide 1000-Watt lamps as necessary. The plants were employed for testing when they reached the second or third true leaf stage.\n(§2) Emulsifiable concentrates of each of each pyridine carboxylate herbicide (Compound A or Compound B) were prepared at 100 grams acid equivalent per liter (g ae/L). The emulsifiable concentrates also included a safener, cloquintocet-mexyl, at 120 grams active ingredient per liter (g ai/L). […]\n(§3) The treated plants and control plants were placed in a greenhouse as described above and watered by sub-irrigation to prevent wash-off of the test compounds. After 20-22 d, the condition of the test plants as compared with that of the control plants was determined visually and scored on a scale of 0 to 100 percent where 0 corresponds to no injury and 100 corresponds to complete kill."}, "[2]": {"system": "Salsola kali (Russian thistle)", "experiment": "Greenhouse postemergence herbicidal effect on SASKR", "excerpt": "as §1, §2, §3"}, "[3]": {"system": "Glycine max (soybean)", "experiment": "Greenhouse postemergence herbicidal effect on GLXMA", "excerpt": "as §1\n(§4) Emulsifiable concentrates of each of each pyridine carboxylate herbicide (Compound A or Compound B) were prepared at 100 grams acid equivalent per liter (g ae/L). The emulsifiable concentrates also included a safener, cloquintocet-mexyl, at 120 grams active ingredient per liter (g ai/L). An aliquot of each emulsifiable concentrate was placed in a 25 mL glass vial and diluted with an aqueous mixture of 1.25% (v/v) ACTIROB® B esterified rapeseed oil (Bayer Crop Science, Research Triangle Park, N.C., USA) or MSO® Concentrate with LECI-TECH® methylated soybean oil (Loveland Products, Loveland, Colo., USA) to obtain concentrated stock solutions at the highest application rate for each herbicide, based upon a 12 milliliter (mL) application volume at a rate of 187 liters per hectare (L/ha). The concentrated stock solutions were further diluted with an aqueous mixture of 1.25% v/v ACTIROB® B or MSO® Concentrate with LECI-TECH® to obtain stock solutions at reduced application rates for each herbicide. Spray solutions of the herbicide combinations (Compound A or Compound B plus the PGR) were prepared by adding weighed amounts or aliquots of the PGR to the stock solutions of Compound A or Compound B to form 12-mL spray solutions in two-way combinations.\n(§5) The spray solutions were applied to the plant material with an overhead Mandel track sprayer equipped with 8002E nozzles calibrated to deliver 187 L/ha over an application area of 0.503 square meters (m^2) at a spray height of 18 inches (43 centimeters (cm)) above the average plant canopy. Control plants were sprayed in the same manner with the solvent blank. All pyridine carboxylate herbicide (component a) application rates are given as “g ae/ha” and all PGR (component b) application rates are given as “g ai/ha.”\nas §3"}, "[4]": {"system": "Viola arvensis (field violet)", "experiment": "Greenhouse postemergence herbicidal effect on VIOAR", "excerpt": "as §1, §2, §3"}, "[5]": {"system": "Triticum aestivum (winter wheat)", "excerpt": "as §1, §4, §5, §3"}, "[6]": {"system": "Zea mays (maize)", "details": "for Herbicidal Effects (% visual injury) ZEAMX Obs: Ethephon 0 g/ha", "excerpt": "as §1, §4, §5, §3"}, "[7]": {"system": "Sorghum vulgare (grain sorghum)", "details": "for Herbicidal Effects (% visual injury) SORVU Obs: Ethephon 0 g/ha", "excerpt": "as §1, §4, §5, §3"}, "[8]": {"system": "Triticum aestivum (spring wheat)", "excerpt": "as §1, §4, §5, §3"}, "[9]": {"system": "Hordeum vulgare (spring barley)", "excerpt": "as §1, §4, §5, §3"}, "[10]": {"system": "Hordeum vulgare (winter barley)", "excerpt": "as §1, §4, §5, §3"}, "[11]": {"system": "Matricaria chamomilla (wild chamomile)", "experiment": "Greenhouse postemergence herbicidal effect on MATCH", "excerpt": "as §1, §2, §3"}, "[12]": {"system": "Cirsium arvense (Canada thistle)", "experiment": "Greenhouse postemergence herbicidal effect on CIRAR", "details": "for Herbicidal Effects (% visual injury) CIRAR Obs: Ethephon 0 g/ha", "excerpt": "as §1, §4, §5, §3"}, "[13]": {"system": "Digitaria sanguinalis (large crabgrass)", "experiment": "Greenhouse postemergence herbicidal effect on DIGSA", "details": "Ethephon 0 g/ha", "excerpt": "as §1, §2\nThe treated plants and control plants were placed in a greenhouse as described above and watered by sub-irrigation to prevent wash-off of the test compounds. After 20-22 d, the condition of the test plants as compared with that of the control plants was determined visually and scored on a scale of 0 to 100 percent where 0 corresponds to no injury and 100 corresponds to complete kill. […]"}, "[14]": {"system": "Lamium purpureum (purple deadnettle)", "experiment": "Greenhouse postemergence herbicidal effect on LAMPU", "excerpt": "as §1, §2, §3"}, "[15]": {"system": "Cyanus segetum (cornflower)", "experiment": "Greenhouse postemergence herbicidal effect on CENCY", "excerpt": "as §1, §2, §3"}, "[16]": {"system": "Capsella bursa-pastoris (shepherd's purse)", "experiment": "Greenhouse postemergence herbicidal effect on CAPBP", "excerpt": "as §1, §2, §3"}, "[17]": {"system": "Veronica persica (Persian speedwell)", "experiment": "Greenhouse postemergence herbicidal effect on VERPE", "excerpt": "as §1, §2, §3"}}, "note": "“And” between values parts separate entries of the source, which are not always exact repeats. Identical values can stand only once. Like-named read-outs stand apart in the source and are kept apart here.", "data": [{"smiles": "N#CCOC(=O)c1nc(-c2ccc3cc[nH]c3c2F)c(F)c(N)c1Cl", "note": "[Compound A, cyanomethyl 4-amino-3-chloro-5-fluoro-6-(7-fluoro-1H-indol-6-yl)pyridine-2-carboxylate]", "values": [{"measurement": "% visual injury Obs", "setting": "[1]; herbicide 7.5 g ae/ha alone", "value": 96, "unit": "%"}, {"measurement": "% visual injury Obs", "setting": "[1]; herbicide 10 g ae/ha alone", "value": 98, "unit": "%"}, {"measurement": "% visual injury Obs", "setting": "[1]; herbicide 15 g ae/ha alone", "value": 100, "unit": "%"}, {"measurement": "% visual injury Obs", "setting": "[2]; herbicide 7.5 g ae/ha alone", "value": 50, "unit": "%"}, {"measurement": "% visual injury Obs", "setting": "[2]; herbicide 10 g ae/ha alone", "value": 60, "unit": "%"}, {"measurement": "% visual injury Obs", "setting": "[2]; herbicide 15 g ae/ha alone", "value": 63, "unit": "%"}, {"measurement": "% visual injury Obs", "setting": "[3]; herbicide 7.5 g ae/ha alone", "value": "100% and 80%"}, {"measurement": "% visual injury Obs", "setting": "[3]; herbicide 10 g ae/ha alone", "value": "99% and 90%"}, {"measurement": "% visual injury Obs", "setting": "[4]; herbicide 7.5 g ae/ha alone", "value": 10, "unit": "%"}, {"measurement": "% visual injury Obs", "setting": "[4]; herbicide 10 g ae/ha alone", "value": 13, "unit": "%"}, {"measurement": "% visual injury Obs", "setting": "[4]; herbicide 15 g ae/ha alone", "value": 10, "unit": "%"}, {"measurement": "% visual injury Obs", "setting": "[5]; herbicide 7.5 g ae/ha alone", "value": 0, "unit": "%"}, {"measurement": "% visual injury Obs", "setting": "[5]; herbicide 10 g ae/ha alone", "value": 0, "unit": "%"}, {"measurement": "% visual injury Obs", "setting": "[5]; herbicide 15 g ae/ha alone", "value": 0, "unit": "%"}, {"measurement": "Herbicidal Effects (% visual injury) ZEAMX Obs", "setting": "[6]; Compound A 7.5 g/ha", "value": 0, "unit": "%"}, {"measurement": "Herbicidal Effects (% visual injury) ZEAMX Obs", "setting": "[6]; Compound A 10 g/ha", "value": 5, "unit": "%"}, {"measurement": "% visual injury Obs", "setting": "[6]; herbicide 7.5 g ae/ha alone", "value": 0, "unit": "%"}, {"measurement": "% visual injury Obs", "setting": "[6]; herbicide 10 g ae/ha alone", "value": 0, "unit": "%"}, {"measurement": "Herbicidal Effects (% visual injury) SORVU Obs", "setting": "[7]; Compound A 7.5 g/ha", "value": 8, "unit": "%"}, {"measurement": "Herbicidal Effects (% visual injury) SORVU Obs", "setting": "[7]; Compound A 10 g/ha", "value": 8, "unit": "%"}, {"measurement": "% visual injury Obs", "setting": "[7]; herbicide 7.5 g ae/ha alone", "value": 0, "unit": "%"}, {"measurement": "% visual injury Obs", "setting": "[7]; herbicide 10 g ae/ha alone", "value": 0, "unit": "%"}, {"measurement": "% visual injury Obs", "setting": "[8]; herbicide 7.5 g ae/ha alone", "value": "0% and 5%"}, {"measurement": "% visual injury Obs", "setting": "[8]; herbicide 10 g ae/ha alone", "value": "0% and 3%"}, {"measurement": "% visual injury Obs", "setting": "[8]; herbicide 15 g ae/ha alone", "value": 0, "unit": "%"}, {"measurement": "% visual injury Obs", "setting": "[9]; herbicide 7.5 g ae/ha alone", "value": 0, "unit": "%"}, {"measurement": "% visual injury Obs", "setting": "[9]; herbicide 10 g ae/ha alone", "value": 0, "unit": "%"}, {"measurement": "% visual injury Obs", "setting": "[9]; herbicide 15 g ae/ha alone", "value": 0, "unit": "%"}, {"measurement": "% visual injury Obs", "setting": "[10]; herbicide 7.5 g ae/ha alone", "value": 0, "unit": "%"}, {"measurement": "% visual injury Obs", "setting": "[10]; herbicide 10 g ae/ha alone", "value": 0, "unit": "%"}, {"measurement": "% visual injury Obs", "setting": "[10]; herbicide 15 g ae/ha alone", "value": 0, "unit": "%"}, {"measurement": "% visual injury Obs", "setting": "[11]; herbicide 7.5 g ae/ha alone", "value": 23, "unit": "%"}, {"measurement": "% visual injury Obs", "setting": "[11]; herbicide 10 g ae/ha alone", "value": 35, "unit": "%"}, {"measurement": "% visual injury Obs", "setting": "[11]; herbicide 15 g ae/ha alone", "value": 45, "unit": "%"}, {"measurement": "Herbicidal Effects (% visual injury) CIRAR Obs", "setting": "[12]; Compound A 7.5 g/ha", "value": 50, "unit": "%"}, {"measurement": "Herbicidal Effects (% visual injury) CIRAR Obs", "setting": "[12]; Compound A 10 g/ha", "value": 60, "unit": "%"}, {"measurement": "% visual injury Obs", "setting": "[12]; herbicide 7.5 g ae/ha alone", "value": "25% and 40% and 50%"}, {"measurement": "% visual injury Obs", "setting": "[12]; herbicide 15 g ae/ha alone", "value": 63, "unit": "%"}, {"measurement": "Herbicidal Effects (% visual injury) DIGSA Obs", "setting": "[13]; Compound A 7.5 g/ha", "value": 10, "unit": "%"}, {"measurement": "Herbicidal Effects (% visual injury) DIGSA Obs", "setting": "[13]; Compound A 10 g/ha", "value": 10, "unit": "%"}, {"measurement": "% visual injury Obs", "setting": "[14]; herbicide 7.5 g ae/ha alone", "value": 68, "unit": "%"}, {"measurement": "% visual injury Obs", "setting": "[14]; herbicide 10 g ae/ha alone", "value": 73, "unit": "%"}, {"measurement": "% visual injury Obs", "setting": "[14]; herbicide 15 g ae/ha alone", "value": 73, "unit": "%"}, {"measurement": "% visual injury Obs", "setting": "[15]; herbicide 7.5 g ae/ha alone", "value": 75, "unit": "%"}, {"measurement": "% visual injury Obs", "setting": "[15]; herbicide 10 g ae/ha alone", "value": 78, "unit": "%"}, {"measurement": "% visual injury Obs", "setting": "[15]; herbicide 15 g ae/ha alone", "value": 80, "unit": "%"}, {"measurement": "% visual injury Obs", "setting": "[16]; herbicide 7.5 g ae/ha alone", "value": 45, "unit": "%"}, {"measurement": "% visual injury Obs", "setting": "[16]; herbicide 10 g ae/ha alone", "value": 55, "unit": "%"}, {"measurement": "% visual injury Obs", "setting": "[16]; herbicide 15 g ae/ha alone", "value": 55, "unit": "%"}, {"measurement": "% visual injury Obs", "setting": "[17]; herbicide 7.5 g ae/ha alone", "value": 78, "unit": "%"}, {"measurement": "% visual injury Obs", "setting": "[17]; herbicide 10 g ae/ha alone", "value": 90, "unit": "%"}, {"measurement": "% visual injury Obs", "setting": "[17]; herbicide 15 g ae/ha alone", "value": 93, "unit": "%"}]}]}
